The experiment has as its target T1, EPHB2 (Homo sapiens, UniProt P29323).
T1 construct: purchased Thermo Fisher Scientific (Life Technologies) SelectScreen
The experiment in a line: SelectScreen Z'LYTE. It counts as biochemical. The procedure, abridged:
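SelectScreen broad panel; activity (Z'LYTE, Adapta) plus binding formats. ATP: Km app for CSF1R Z'LYTE; 10 for CAMK1 Adapta. Readout = % per kinase.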

T1 sequence (P29323 19-1055): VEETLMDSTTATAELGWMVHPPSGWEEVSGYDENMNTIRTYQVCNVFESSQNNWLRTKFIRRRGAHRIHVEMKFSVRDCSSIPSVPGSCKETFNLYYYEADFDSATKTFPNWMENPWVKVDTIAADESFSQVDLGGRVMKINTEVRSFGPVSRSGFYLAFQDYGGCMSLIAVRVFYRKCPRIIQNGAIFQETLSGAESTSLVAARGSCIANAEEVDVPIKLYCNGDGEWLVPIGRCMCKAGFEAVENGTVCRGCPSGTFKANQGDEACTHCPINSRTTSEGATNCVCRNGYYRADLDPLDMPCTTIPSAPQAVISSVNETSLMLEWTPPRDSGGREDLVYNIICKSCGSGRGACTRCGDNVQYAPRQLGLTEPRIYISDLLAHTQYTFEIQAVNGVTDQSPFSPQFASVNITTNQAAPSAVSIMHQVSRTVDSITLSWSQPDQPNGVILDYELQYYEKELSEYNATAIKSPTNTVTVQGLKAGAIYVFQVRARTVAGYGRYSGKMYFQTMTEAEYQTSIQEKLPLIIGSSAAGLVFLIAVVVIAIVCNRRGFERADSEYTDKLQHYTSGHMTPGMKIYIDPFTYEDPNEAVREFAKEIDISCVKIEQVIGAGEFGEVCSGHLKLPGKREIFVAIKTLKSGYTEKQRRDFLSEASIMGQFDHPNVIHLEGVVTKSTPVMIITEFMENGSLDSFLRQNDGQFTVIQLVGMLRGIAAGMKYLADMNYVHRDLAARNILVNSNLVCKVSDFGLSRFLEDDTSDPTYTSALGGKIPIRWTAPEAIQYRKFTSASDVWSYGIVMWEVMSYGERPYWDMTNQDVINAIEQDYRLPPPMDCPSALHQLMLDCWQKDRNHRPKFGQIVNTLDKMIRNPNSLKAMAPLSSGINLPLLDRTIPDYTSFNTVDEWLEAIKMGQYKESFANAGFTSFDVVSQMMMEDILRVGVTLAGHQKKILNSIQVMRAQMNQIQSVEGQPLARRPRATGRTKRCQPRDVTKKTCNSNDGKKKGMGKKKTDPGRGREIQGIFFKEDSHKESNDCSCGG

Consider `CN(C(=O)CN1CCOCC1)c1ccc2sc3c(-c4cccc5c(=O)cc(N6CC7CCC(C6)O7)oc45)cccc3c2c1` [NU5455], for which the inhibition at 1 µM is -0.1%.

Values taken from article PMC6934184, “Selective DNA-PKcs inhibition extends the therapeutic index of localized radiotherapy and chemotherapy” (The Journal of Clinical Investigation, 2019).
